Paper PMC9272937, “Anti-breast cancer sinomenine derivatives via mechanisms of apoptosis induction and metastasis reduction” (Journal of Enzyme Inhibition and Medicinal Chemistry, 2022)
Read-outs that look alike come from different tables or passages of the source.

How the values were obtained:
[1] = tested on: human lung cancer cell line A549; assay: CCK-8 antiproliferative assay, A549; format: cell-based; settings: CCK-8, 48 h, mean ± SD of three experiments
Experimental: (§1) The antiproliferative activities of target compounds were examined by CCK-8 assay in three cancer cells (human lung cancer cell line A549, human mammary gland tumour cell line MCF-7 and human TNBC cell line MDA-MB-231) and one normal cell (human normal breast cell line MCF10A). All cell lines were sourced from KeyGEN Biotech, […], China, and a standard DMEM medium was applied to all cell cultures then subjected to 24 h incubation at 37 °C in a humidified environment with 5% CO2. After that logarithmic growing cells were plated on 96-well plates with 8,000 cells per well in a […] medium for 24 h incubation at 37 °C with 5% CO2. The DMEM medium with bovine serum was removed from each well. Then, prerequisite target compounds and positive controls were added to different cell lines in a predetermined concentration regiment for 48 h culture.

[2] = tested on: human TNBC cell line MDA-MB-231; assay: CCK-8 antiproliferative assay, MDA-MB-231; format: cell-based; settings: for IC50: Homo sapiens, read-out: IC50 MDA-MB-231; for SI MDA-MB-231 (selectivity index): SI = IC50(MCF-10A)/IC50(MDA-MB-231)
Experimental: as §1

[3] = tested on: human normal breast cell line MCF10A; assay: CCK-8 assay, normal cells MCF10A; format: cell-based; settings: MCF-10A, CCK-8, 48 h, mean ± SD of three experiments
Experimental: as §1

[4] = Griess assay, NO-releasing capacity; settings: 10^−4 mol/l compound, L-cysteine, 37 °C; for NO peak releasing: 15-180 min
Experimental: The NO-releasing capacity of each target compound was determined by the colorimetric method under the instructions of the manufacturer. Preparation of standard curves of 0, 1.56, 3.13, 6.25, 12.5, 25, 50 and 100 μmol/L nitrite nitrogen series standard solution was prepared. 50 μL to 96-well plate was added respectively and then mixed with 50 μL Griess I and Griess II; the absorption value was measured at 540 nm wavelength. A standard curve was drawn from the obtained data. Compounds were formulated into 10^−4 mol/l with PBS (pH = 7.4) and pharmaceutical DMSO. The newly formulated L-cysteine solution 100 μL ([…]) was added and incubated at 37 °C for 15, 30, 45, 60, 90, 120, 150 and180 min, respectively. Griess I and II recovered to room temperature, 50 μL of compounds 7A–E(a–c) were added respectively into the 96-well plate, and then 50 μL of Griess I and 50 μL of Griess II were added in sequence, with the absorbance tested at 540 nm. The amount of NO released was then calculated according to the standard curve.

[5] = tested on: human mammary gland tumour cell line MCF-7; assay: CCK-8 antiproliferative assay, MCF-7; format: cell-based; settings: for IC50: Homo sapiens, read-out: IC50 MCF-7; for SI MCF-7 (selectivity index): SI = IC50(MCF-10A)/IC50(MCF-7)
Experimental: as §1

Row | Structure (SMILES) | IC50 ([1]; Homo sapiens, A549) [µM] | IC50 ([2]; MDA-MB-231, 48 h) [µM] | SI MDA-MB-231 (selectivity index) [2] | IC50 [3] [µM] | NO peak releasing [4] | IC50 ([5]; MCF7, 48 h) [µM] | SI MCF-7 (selectivity index) [5] | NO release at 180 min ([4]; 180 min) [µmol/L] | IC50 ([2]; MDA-MB-231, CCK-8, 48 h, mean ± SD of three experiments) [µM] | IC50 ([5]; MCF7, CCK-8, 48 h, mean ± SD of three experiments) [µM] | IC50 [1] [µM]
1 | COC1=CC2[C@H]3Cc4ccc(OC)c(OC(=O)CCC(=O)OCCOc5no[n+]([O-])c5S(=O)(=O)c5ccccc5)c4[C@@]2(CCN3C)CC1=O (stereo partly drawn) [7Aa, 4–(2-((4-(((4bs,9R)-3,7-Dimethoxy-11-methyl-6-oxo-6,8a,9,10-tetrahydro-5H-9,4b-(epiminoethano)phenanthren-4-yl)oxy)-4-oxobutanoyl)oxy)ethoxy)-3-(phenylsulfonyl)-1,2,5-oxadiazole 2-oxide] | 15.2 ± 1.37 | 31.5 ± 2.77 | >1.58 | > 50 | exceeding 40 μmol/L | 26.4 ± 1.25 | >1.89 | – | – | – | –
2 | COC1=CC2[C@H]3Cc4ccc(OC)c(OC(=O)CCCC(=O)OCCOc5no[n+]([O-])c5S(=O)(=O)c5ccccc5)c4[C@@]2(CCN3C)CC1=O (stereo partly drawn) [7Ab, 4–(2-((5-(((4bs,9R)-3,7-Dimethoxy-11-methyl-6-oxo-6,8a,9,10-tetrahydro-5H-9,4b-(epiminoethano)phenanthren-4-yl)oxy)-5-oxopentanoyl)oxy)ethoxy)-3-(phenylsulfonyl)-1,2,5-oxadiazole 2-oxide] | 9.41 ± 0.68 | 29.6 ± 1.8 | >1.69 | > 50 | – | 15.3 ± 0.94 | >3.27 | – | – | – | –
3 | COC1=CC2[C@H]3Cc4ccc(OC)c(OC(=O)c5ccccc5C(=O)OCCOc5no[n+]([O-])c5S(=O)(=O)c5ccccc5)c4[C@@]2(CCN3C)CC1=O (stereo partly drawn) [7Ac, 4–(2-((2-((((4bs,9R)-3,7-Dimethoxy-11-methyl-6-oxo-6,8a,9,10-tetrahydro-5H-9,4b-(epiminoethano)phenanthren-4-yl)oxy)carbonyl)benzoyl)oxy)ethoxy)-3-(phenylsulfonyl)-1,2,5-oxadiazole 2-oxide] | 2.33 ± 0.15 | 1.62 ± 0.15 | 13.30 | 21.5 ± 0.88 | exceeding 40 μmol/L | 5.87 ± 0.42 | 3.67 | – | – | – | –
4 | COC1=CC2C3Cc4ccc(OC)c(OC(=O)CCC(=O)OCCCOc5no[n+]([O-])c5S(=O)(=O)c5ccccc5)c4C2(CCN3C)CC1=O (stereo not drawn) [7Ba] | 9.84 ± 0.47 | 24.2 ± 1.97 | >2.06 | > 50 | – | 19 ± 1.33 | >2.64 | 68.4 | – | – | –
5 | COC1=CC2[C@H]3Cc4ccc(OC)c(OC(=O)CCCC(=O)OCCCOc5no[n+]([O-])c5S(=O)(=O)c5ccccc5)c4[C@@]2(CCN3C)CC1=O (stereo partly drawn) [7Bb, 4–(3-((5-(((4bs,9R)-3,7-Dimethoxy-11-methyl-6-oxo-6,8a,9,10-tetrahydro-5H-9,4b-(epiminoethano)phenanthren-4-yl)oxy)-5-oxopentanoyl)oxy)propoxy)-3-(phenylsulfonyl)-1,2,5-oxadiazole 2-oxide] | 4.91 ± 0.3 | 16.4 ± 1.55 | >3.04 | > 50 | – | 19.7 ± 1.28 | >2.54 | – | – | – | –
6 | COC1=CC2[C@H]3Cc4ccc(OC)c(OC(=O)c5ccccc5C(=O)OCCCOc5no[n+]([O-])c5S(=O)(=O)c5ccccc5)c4[C@@]2(CCN3C)CC1=O (stereo partly drawn) [7Bc, 4–(3-((2-((((4bs,9R)-3,7-Dimethoxy-11-methyl-6-oxo-6,8a,9,10-tetrahydro-5H-9,4b-(epiminoethano)phenanthren-4-yl)oxy)carbonyl)benzoyl)oxy)propoxy)-3-(phenylsulfonyl)-1,2,5-oxadiazole 2-oxide] | 5.05 ± 0.21 | 18.7 ± 0.61 | >2.67 | > 50 | – | 12.2 ± 0.92 | >4.11 | – | – | – | –
7 | COC1=CC2[C@H]3Cc4ccc(OC)c(OC(=O)CCCC(=O)OCCCCOc5no[n+]([O-])c5S(=O)(=O)c5ccccc5)c4[C@@]2(CCN3C)CC1=O (stereo partly drawn) [7Cb, 4–(4-((5-(((4bs,9R)-3,7-Dimethoxy-11-methyl-6-oxo-6,8a,9,10-tetrahydro-5H-9,4b-(epiminoethano)phenanthren-4-yl)oxy)-5-oxopentanoyl)oxy)butoxy)-3-(phenylsulfonyl)-1,2,5-oxadiazole 2-oxide] | 3.53 ± 0.29 | 1.47 ± 0.14 | 24.97 | 36.7 ± 1.02 | – | 4.68 ± 0.39 | 7.84 | – | – | – | –
8 | COC1=CC2[C@H]3Cc4ccc(OC)c(OC(=O)CCCC(=O)OCCCCCOc5no[n+]([O-])c5S(=O)(=O)c5ccccc5)c4[C@@]2(CCN3C)CC1=O (stereo partly drawn) [7Db, 4-((5-((5-(((4bs,9R)-3,7-Dimethoxy-11-methyl-6-oxo-6,8a,9,10-tetrahydro-5H-9,4b-(epiminoethano)phenanthren-4-yl)oxy)-5-oxopentanoyl)oxy)pentyl)oxy)-3-(phenylsulfonyl)-1,2,5-oxadiazole 2-oxide] | 3.92 ± 0.31 | 3.11 ± 0.22 | 12.69 | 39.5 ± 2.9 | – | 2.94 ± 0.27 | 13.43 | – | – | – | –
9 | COC1=CC2[C@H]3Cc4ccc(OC)c(OC(=O)CCC(=O)OCCCCCCOc5no[n+]([O-])c5S(=O)(=O)c5ccccc5)c4[C@@]2(CCN3C)CC1=O (stereo partly drawn) [7Ea, 4-((6-((4-(((4bs,9R)-3,7-Dimethoxy-11-methyl-6-oxo-6,8a,9,10-tetrahydro-5H-9,4b-(epiminoethano)phenanthren-4-yl)oxy)-4-oxobutanoyl)oxy)hexyl)oxy)-3-(phenylsulfonyl)-1,2,5-oxadiazole 2-oxide] | 4.62 ± 0.16 | 19 ± 0.7 | 2.30 | 43.6 ± 2.65 | – | 25.3 ± 0.9 | 2.79 | – | – | – | –
10 | COC1=CC2[C@H]3Cc4ccc(OC)c(OC(=O)CCCC(=O)OCCCCCCOc5no[n+]([O-])c5S(=O)(=O)c5ccccc5)c4[C@@]2(CCN3C)CC1=O (stereo partly drawn) [7Eb, 4-((6-((5-(((4bs,9R)-3,7-Dimethoxy-11-methyl-6-oxo-6,8a,9,10-tetrahydro-5H-9,4b-(epiminoethano)phenanthren-4-yl)oxy)-5-oxopentanoyl)oxy)hexyl)oxy)-3-(phenylsulfonyl)-1,2,5-oxadiazole 2-oxide] | 4.55 ± 0.43 | 41.5 ± 1.48 | >1.21 | > 50 | – | 17.9 ± 1.26 | >2.79 | – | – | – | –
11 | COC1=CC2[C@H]3Cc4ccc(OC)c(OC(=O)c5ccccc5C(=O)OCCCCCCOc5no[n+]([O-])c5S(=O)(=O)c5ccccc5)c4[C@@]2(CCN3C)CC1=O (stereo partly drawn) [7Ec, 4-((6-((2-((((4bs,9R)-3,7-Dimethoxy-11-methyl-6-oxo-6,8a,9,10-tetrahydro-5H-9,4b-(epiminoethano)phenanthren-4-yl)oxy)carbonyl)benzoyl)oxy)hexyl)oxy)-3-(phenylsulfonyl)-1,2,5-oxadiazole 2-oxide] | 4.81 ± 0.18 | 1.81 ± 0.13 | 26.70 | 48.3 ± 3.78 | – | 3.94 ± 0.28 | 12.26 | – | – | – | –
12 | COc1cccc2c1C(=O)c1c(O)c3c(c(O)c1C2=O)C[C@@](O)(C(=O)CO)C[C@@H]3O[C@H]1C[C@H](N)[C@H](O)[C@H](C)O1 [Adriamycin, adriamycin, reference compound] | – | – | – | – | – | – | – | – | 4.92 ± 0.44 | 5.12 ± 0.31 | –
13 | N.N.[Cl][Pt][Cl] [Cisplatin, cisplatin, reference compound] | – | – | – | – | – | – | – | – | – | – | 4.97 ± 0.37
